Data on 39 molecules can be found in patent US20250228835A1, “PYRIDINYLOXYPYRIDINES AND RELATED COMPOUNDS AND THEIR USE IN TREATING MEDICAL CONDITIONS” (Rectify Pharmaceuticals, Inc., priority 2024, published 2025).

Like-named read-outs stand apart in the source and are kept apart here.

One assay deals with T1, ABCC6 WT (Homo sapiens, UniProt O95255).
T1 construct: expressed in transfected cells; host or cells: HEK-293 (transient, Lipofectamine 2000)
The experiment in a line: ABCC6 WT assay: HiBit protein expression. It counts as cell-based. As to conditions: HEK-293 cells transiently expressing HiBit-tagged ABCC6 WT; 24 h treatment; top concentration 20 μM; read-out: ABCC6 WT EC50, Emax. In outline:
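HEK-293 cells transiently transfected with HiBit-tagged human ABCC6 WT cDNA, seeded 24 h post-transfection, treated 24 h at 37° C with ten 2-fold doses (top 20 μM final, 0.15% DMSO). HiBit lytic luminescence reports protein expression; Emax and EC50 derived.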

The target in another assay is T2, ABCA4 P1380L (Homo sapiens, UniProt P78363, P1380L).
T2 construct: expressed in transfected cells
Briefly: A4 correction dose-response assay: ABCA4 P1380L HiBit protein expression. It counts as cell-based. Conditions: HEK-293 cells stably expressing HiBit-tagged ABCA4 P1380L, 24 h treatment, top concentration 30 μM. In outline:
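Cells transfected with HiBit-tagged human ABCA4 P1380L cDNA were treated for 24 h at 37°C with an eleven-point dilution series (top final 30 μM, 0.3% DMSO).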

Setting [1] is: read-out: ABCA4 P1380L EC50, Emax.

T1 sequence (O95255 whole entry): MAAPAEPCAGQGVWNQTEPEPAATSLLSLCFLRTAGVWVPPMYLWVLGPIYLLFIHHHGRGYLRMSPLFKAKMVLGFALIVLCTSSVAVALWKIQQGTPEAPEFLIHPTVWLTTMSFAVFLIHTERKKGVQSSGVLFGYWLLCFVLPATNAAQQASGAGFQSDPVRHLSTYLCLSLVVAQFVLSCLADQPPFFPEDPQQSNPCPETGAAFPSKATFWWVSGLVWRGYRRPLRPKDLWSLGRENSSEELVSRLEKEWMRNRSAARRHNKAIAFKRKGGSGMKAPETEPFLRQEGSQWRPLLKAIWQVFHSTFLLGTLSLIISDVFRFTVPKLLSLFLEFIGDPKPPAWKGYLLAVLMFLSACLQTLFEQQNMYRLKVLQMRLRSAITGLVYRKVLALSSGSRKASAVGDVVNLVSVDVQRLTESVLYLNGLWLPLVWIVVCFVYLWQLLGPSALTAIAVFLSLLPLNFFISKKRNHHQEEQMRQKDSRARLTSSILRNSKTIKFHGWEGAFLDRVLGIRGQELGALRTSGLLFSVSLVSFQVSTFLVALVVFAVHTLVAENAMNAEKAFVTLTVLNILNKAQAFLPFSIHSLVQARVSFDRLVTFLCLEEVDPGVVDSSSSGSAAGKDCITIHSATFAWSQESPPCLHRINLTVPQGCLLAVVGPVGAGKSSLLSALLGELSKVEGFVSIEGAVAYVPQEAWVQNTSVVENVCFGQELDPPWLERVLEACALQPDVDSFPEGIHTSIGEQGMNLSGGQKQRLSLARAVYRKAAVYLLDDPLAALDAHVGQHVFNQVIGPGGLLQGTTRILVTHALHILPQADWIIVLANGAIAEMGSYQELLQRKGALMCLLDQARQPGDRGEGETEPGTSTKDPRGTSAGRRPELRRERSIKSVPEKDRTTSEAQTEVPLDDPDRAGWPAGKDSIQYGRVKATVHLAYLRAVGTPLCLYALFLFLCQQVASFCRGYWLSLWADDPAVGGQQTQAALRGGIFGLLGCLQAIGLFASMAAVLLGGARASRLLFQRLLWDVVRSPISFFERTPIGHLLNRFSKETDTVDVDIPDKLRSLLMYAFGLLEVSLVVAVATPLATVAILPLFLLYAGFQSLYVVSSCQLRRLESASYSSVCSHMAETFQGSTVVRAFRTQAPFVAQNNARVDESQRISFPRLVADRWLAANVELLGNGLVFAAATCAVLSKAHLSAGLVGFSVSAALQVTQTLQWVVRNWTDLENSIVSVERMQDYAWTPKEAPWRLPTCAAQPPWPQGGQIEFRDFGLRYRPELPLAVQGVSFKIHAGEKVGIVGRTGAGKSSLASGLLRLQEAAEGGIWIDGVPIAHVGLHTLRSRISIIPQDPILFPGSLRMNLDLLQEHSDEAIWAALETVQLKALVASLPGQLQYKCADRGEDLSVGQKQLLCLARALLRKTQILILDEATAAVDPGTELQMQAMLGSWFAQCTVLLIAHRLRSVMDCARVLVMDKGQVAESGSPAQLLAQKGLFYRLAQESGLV
T2 sequence (P78363 whole entry P1380L): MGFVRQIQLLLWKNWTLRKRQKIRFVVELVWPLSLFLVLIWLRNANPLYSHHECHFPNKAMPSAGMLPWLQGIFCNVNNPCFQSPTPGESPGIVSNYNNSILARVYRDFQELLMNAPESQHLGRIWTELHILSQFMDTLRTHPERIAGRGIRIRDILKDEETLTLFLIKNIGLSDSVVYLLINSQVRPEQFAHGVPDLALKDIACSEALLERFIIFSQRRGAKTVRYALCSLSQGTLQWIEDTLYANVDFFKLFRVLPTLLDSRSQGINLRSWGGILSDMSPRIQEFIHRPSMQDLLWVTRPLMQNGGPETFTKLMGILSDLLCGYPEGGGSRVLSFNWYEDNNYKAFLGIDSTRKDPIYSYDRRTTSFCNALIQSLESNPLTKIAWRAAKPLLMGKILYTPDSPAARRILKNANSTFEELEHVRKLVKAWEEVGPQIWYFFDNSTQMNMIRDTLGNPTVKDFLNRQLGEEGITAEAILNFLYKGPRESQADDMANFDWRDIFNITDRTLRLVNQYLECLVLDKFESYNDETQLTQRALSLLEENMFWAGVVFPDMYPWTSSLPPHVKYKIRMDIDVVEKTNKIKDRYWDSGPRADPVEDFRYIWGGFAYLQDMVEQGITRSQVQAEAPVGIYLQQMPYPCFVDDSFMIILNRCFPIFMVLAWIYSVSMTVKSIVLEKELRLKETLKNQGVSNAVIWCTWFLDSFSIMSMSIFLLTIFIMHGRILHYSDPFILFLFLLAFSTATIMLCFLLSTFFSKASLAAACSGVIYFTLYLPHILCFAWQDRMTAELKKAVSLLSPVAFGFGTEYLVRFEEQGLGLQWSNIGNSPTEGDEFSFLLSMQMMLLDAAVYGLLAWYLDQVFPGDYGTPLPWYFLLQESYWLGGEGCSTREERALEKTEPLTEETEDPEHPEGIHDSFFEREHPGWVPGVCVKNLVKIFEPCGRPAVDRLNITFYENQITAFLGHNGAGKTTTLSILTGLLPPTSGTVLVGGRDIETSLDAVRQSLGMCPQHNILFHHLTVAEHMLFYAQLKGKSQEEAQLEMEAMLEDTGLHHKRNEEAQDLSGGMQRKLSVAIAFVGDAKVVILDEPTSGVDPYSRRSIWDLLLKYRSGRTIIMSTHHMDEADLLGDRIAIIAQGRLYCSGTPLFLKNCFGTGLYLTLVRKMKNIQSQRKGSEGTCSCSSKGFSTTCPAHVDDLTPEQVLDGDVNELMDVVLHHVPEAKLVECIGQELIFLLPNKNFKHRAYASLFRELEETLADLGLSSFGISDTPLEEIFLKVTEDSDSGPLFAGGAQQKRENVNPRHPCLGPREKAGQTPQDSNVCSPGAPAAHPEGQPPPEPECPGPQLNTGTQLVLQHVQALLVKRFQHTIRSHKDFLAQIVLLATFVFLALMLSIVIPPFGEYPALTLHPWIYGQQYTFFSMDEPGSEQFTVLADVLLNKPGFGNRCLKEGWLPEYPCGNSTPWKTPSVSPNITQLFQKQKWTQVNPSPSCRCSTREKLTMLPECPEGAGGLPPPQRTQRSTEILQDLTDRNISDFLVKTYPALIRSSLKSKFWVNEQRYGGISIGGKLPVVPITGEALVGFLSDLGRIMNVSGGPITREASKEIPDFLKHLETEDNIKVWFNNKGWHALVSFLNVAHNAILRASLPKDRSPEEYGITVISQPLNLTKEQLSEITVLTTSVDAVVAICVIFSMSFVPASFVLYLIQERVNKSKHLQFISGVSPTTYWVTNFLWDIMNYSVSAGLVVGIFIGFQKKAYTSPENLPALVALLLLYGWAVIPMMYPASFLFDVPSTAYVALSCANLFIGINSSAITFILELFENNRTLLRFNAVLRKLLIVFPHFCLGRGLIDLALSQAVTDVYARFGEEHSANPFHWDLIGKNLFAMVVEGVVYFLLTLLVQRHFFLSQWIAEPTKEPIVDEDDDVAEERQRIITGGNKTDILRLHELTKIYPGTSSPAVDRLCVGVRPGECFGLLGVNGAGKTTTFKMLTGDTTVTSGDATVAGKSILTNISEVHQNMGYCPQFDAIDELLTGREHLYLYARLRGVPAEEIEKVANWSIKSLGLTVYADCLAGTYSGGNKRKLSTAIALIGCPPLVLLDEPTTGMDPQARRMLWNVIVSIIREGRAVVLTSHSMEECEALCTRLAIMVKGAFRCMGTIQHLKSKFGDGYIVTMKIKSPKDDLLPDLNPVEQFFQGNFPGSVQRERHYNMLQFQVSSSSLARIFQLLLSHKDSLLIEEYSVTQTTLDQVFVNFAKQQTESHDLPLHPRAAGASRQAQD

As a reminder, the EC50 is the concentration giving half of the maximal effect. For `Cc1cc(C)c(Oc2nc(-c3cncc(C#N)c3)ccc2NS(C)(=O)=O)c(C2CC2)n1` [Compound I-268], the EC50 on ABCC6 WT and at ABCA4 P1380L (setting [1]) was < 1000 nM throughout.

`Cc1cc(C2CC2)nc(C)c1Oc1nc(-c2cncc(C#N)c2)ccc1S(C)(=N)=O` (stereo not drawn) [Compound I-251]: the EC50 is 10000 to 25000 nM on ABCC6 WT and > 25000 nM on ABCA4 P1380L (setting [1]).

On to `Cc1cc(C(F)F)nc(C2CC2)c1Oc1nc(-c2cncc(C#N)c2)ccc1S(=O)(=O)NC1CCOCC1` [Compound I-320], for which the half-maximal effective concentration (EC50) was 1000 to 10000 nM on ABCC6 WT and < 25000 nM at ABCA4 P1380L (setting [1]).

For `Cc1cc(C)c(Oc2nc(-n3cnc(C#N)c3)ccc2NS(C)(=O)=O)c(C)c1` [Compound I-273], the EC50 is < 1000 nM at ABCC6 WT and < 25000 nM on ABCA4 P1380L (setting [1]).

Turning to `Cc1cc(C(F)F)cc(C2CC2)c1Oc1nc(-c2cncc(C#N)c2)ccc1S(=N)(=O)C1CC1` (stereo not drawn) [Compound I-319], the EC50 is < 1000 nM on ABCC6 WT and > 25000 nM on ABCA4 P1380L (setting [1]).

Regarding `Cc1cc(C)c(Oc2nc(-n3ccc(C#N)n3)ccc2NS(C)(=O)=O)c(C)c1` [Compound I-257], the EC50 is 1000 to 10000 nM at ABCC6 WT and < 25000 nM on ABCA4 P1380L (setting [1]).

For `Cc1cc(C)c(Oc2nc(N3CCC(C#N)C3)ccc2NS(C)(=O)=O)c(C)c1` (single isomer, unassigned) [Compound I-262], the EC50 on ABCC6 WT and at ABCA4 P1380L (setting [1]) was 1000 to 10000 nM in each case.

Regarding `Cc1cc(C)c(Oc2nc(-c3cncc(S(C)(=O)=O)c3)ccc2NS(C)(=O)=O)c(C)c1` [Compound I-278], the EC50 on ABCC6 WT and on ABCA4 P1380L (setting [1]) was 1000 to 10000 nM each time.

As to `Cc1cc(C)c(Oc2nc(N3CCN(C(=O)C4CC4)CC3)ccc2NS(C)(=O)=O)c(C2CC2)n1` [Compound I-20], the figures for the EC50 on ABCC6 WT and on ABCA4 P1380L (setting [1]) were 1000 to 10000 nM and > 25000 nM, respectively.

For `Cc1cc(C)c(Oc2nc(-c3cn(C)nc3C)ccc2NS(C)(=O)=O)c(C)c1` [Compound I-283], the EC50 on ABCC6 WT and on ABCA4 P1380L (setting [1]) was < 1000 nM each time.

With `Cc1cc(C)c(Oc2nc(N3CCn4c(cnc4C)C3)ccc2NS(C)(=O)=O)c(C)c1` [Compound I-30], the results for the EC50 at ABCC6 WT and on ABCA4 P1380L (setting [1]) were 1000 to 10000 nM and < 1000 nM, respectively.

With `Cc1cc(C)c(Oc2nc(N3CC4CC(C3)N4C(=O)C3CC3)ccc2NS(C)(=O)=O)c(C)c1` [Compound I-22], the EC50 on ABCC6 WT and on ABCA4 P1380L (setting [1]) was 1000 to 10000 nM throughout.

Consider `Cc1cc(C)c(Oc2nc(N3CC4CC3CN4C(=O)C3CC3)ccc2NS(C)(=O)=O)c(C)c1` (single isomer, unassigned) [Compound I-19], for which the EC50 on ABCC6 WT was ≥ 25000 nM; at ABCA4 P1380L (setting [1]), > 25000 nM.

For `CCS(=O)(=O)Nc1ccc(-c2cncc(C#N)c2)nc1Oc1c(C)cc(C)nc1C` [Compound I-247], the EC50 on ABCC6 WT and on ABCA4 P1380L (setting [1]) was < 1000 nM in each case.

On to `Cc1cc(C)c(Oc2nc(-c3cncc(C#N)c3)ncc2NS(C)(=O)=O)c(C)n1` [Compound I-284], for which the EC50 on ABCC6 WT was < 1000 nM; at ABCA4 P1380L (setting [1]) it was < 25000 nM.

As to `Cc1cc(C2CC2)nc(C2CC2)c1Oc1nc(-c2cncc(C#N)c2)ccc1S(=O)(=O)NC1CCOCC1` [Compound I-322], the EC50 on ABCC6 WT and on ABCA4 P1380L (setting [1]) was 1000 to 10000 nM each time.

As to `Cc1cc(C)c(Oc2nc(-c3cncc(C#N)c3)cnc2NS(C)(=O)=O)c(C)n1` [Compound I-259], the EC50 on ABCC6 WT is 1000 to 10000 nM; on ABCA4 P1380L (setting [1]), < 25000 nM.

Consider `Cc1cc(C)c(Oc2nc(-c3cc(Cl)cnc3C)ccc2NS(C)(=O)=O)c(C)n1` [Compound I-282], for which the EC50 on ABCC6 WT was 1000 to 10000 nM; on ABCA4 P1380L (setting [1]), > 25000 nM.

Consider `Cc1cc(C)c(Oc2nc(-c3cncc(C#N)c3)ccc2NS(C)(=O)=O)c(C)c1` [Compound I-39], for which the EC50 on ABCC6 WT and at ABCA4 P1380L (setting [1]) was < 1000 nM throughout.

As to `CNS(=O)(=O)c1ccc(-c2cncc(C#N)c2)nc1Oc1c(C)cc(C)cc1C` [Compound I-281], the EC50 on ABCC6 WT and at ABCA4 P1380L (setting [1]) was < 1000 nM throughout.

As to `Cc1cc(C)c(Oc2nc(-c3cncc(Cl)c3)ccc2NS(C)(=O)=O)c(C2CC2)n1` [Compound I-40], the EC50 on ABCC6 WT and at ABCA4 P1380L (setting [1]) was < 1000 nM throughout.

For the molecule `Cc1cc(C2CC2)nc(C)c1Oc1nc(-c2cncc(Cl)c2)ccc1NS(C)(=O)=O` [Compound I-37], the EC50 on ABCC6 WT and on ABCA4 P1380L (setting [1]) was < 1000 nM in each case.

Consider `Cc1cc(C)c(Oc2nc(-c3ccc(C#N)nc3C)ccc2NS(C)(=O)=O)c(C)n1` [Compound I-269], for which the EC50 on ABCC6 WT and on ABCA4 P1380L (setting [1]) was 1000 to 10000 nM in each case.

`Cc1cc(C)c(Oc2nc(-c3cncc(C#N)c3)ccc2S(N)(=O)=O)c(C)n1` [Compound I-258]: the EC50 was in the range of 10000 to 25000 nM on ABCC6 WT and 1000 to 10000 nM at ABCA4 P1380L (ABCA4 P1380L EC50, Emax).

Regarding `Cc1cc(C)c(Oc2nc(-c3cncc(C#N)c3)ccc2NS(=O)(=O)C2CCC2)c(C)c1` [Compound I-253], the EC50 at ABCC6 WT was 1000 to 10000 nM; on ABCA4 P1380L (setting [1]) it was < 25000 nM.

As to `Cc1cc(C)c(Oc2nc(-n3cc(C#N)cn3)ccc2NS(C)(=O)=O)c(C)c1` [Compound I-274], the EC50 on ABCC6 WT and on ABCA4 P1380L (setting [1]) was < 1000 nM throughout.

As to `Cc1cc(C)c(Oc2nc(N3CCN(C(=O)C4CC4)CC3)ccc2S(N)(=O)=O)c(C)c1` [Compound I-285], the EC50 on ABCC6 WT was 1000 to 10000 nM; at ABCA4 P1380L (setting [1]) it was > 25000 nM.

As to `Cc1cc(C2CC2)nc(C)c1Oc1nc(-c2cncc(S(C)(=O)=O)c2)ccc1NS(C)(=O)=O` [Compound I-263], the EC50 at ABCC6 WT and at ABCA4 P1380L (setting [1]) was 1000 to 10000 nM throughout.

For the molecule `Cc1cc(C)c(Oc2nc(-c3cncc(Cl)c3)ccc2NS(=O)(=O)C2COC2)c(C)c1` [Compound I-41], the EC50 at ABCC6 WT and at ABCA4 P1380L (setting [1]) was < 1000 nM throughout.

As for `Cc1cc(C2CC2)nc(C)c1Oc1nc(-n2cc(C#N)cn2)ccc1NS(C)(=O)=O` [Compound I-256], the values for the half-maximal effective concentration (EC50) at ABCC6 WT and at ABCA4 P1380L (setting [1]) were < 1000 nM and > 25000 nM, respectively.

With `Cc1cc(C)c(Oc2nc(N3CCn4c(C)nnc4C3)ccc2NS(C)(=O)=O)c(C)c1` [Compound I-21], the figures for the EC50 on ABCC6 WT and on ABCA4 P1380L (setting [1]) were 1000 to 10000 nM and > 25000 nM, respectively.

In the case of `Cc1cc(C)c(Oc2nc(N3CCN(C(=O)C4COC4)CC3)ccc2NS(C)(=O)=O)c(C)c1` [Compound I-23], the EC50 at ABCC6 WT and at ABCA4 P1380L (setting [1]) was 10000 to 25000 nM in each case.

Consider `Cc1cc(C)c(Oc2nc(N3CCN(S(C)(=O)=O)CC3)ccc2NS(C)(=O)=O)c(C)c1` [Compound I-26], for which the EC50 on ABCC6 WT was ≥ 25000 nM; on ABCA4 P1380L (setting [1]), > 25000 nM.

With `Cc1cc(C2CC2)nc(C)c1Oc1nc(N2CCN(C(=O)C3CC3)CC2)ccc1NS(C)(=O)=O` [Compound I-28], the values for the EC50 at ABCC6 WT and at ABCA4 P1380L (setting [1]) were ≥ 25000 nM and 1000 to 10000 nM, respectively.

As for `Cc1cc(C)c(Oc2nc(-c3ccnc(C#N)c3)ccc2NS(C)(=O)=O)c(C)n1` [Compound I-239], the EC50 at ABCC6 WT and at ABCA4 P1380L (setting [1]) was < 1000 nM each time.

For the molecule `Cc1cc(C)c(Oc2nc(-c3cncc(C#N)c3)ccc2NS(=O)(=O)C(C)C)c(C)n1` [Compound I-276], the EC50 on ABCC6 WT and at ABCA4 P1380L (setting [1]) was < 1000 nM throughout.

For the molecule `Cc1cc(C)c(Oc2[nH]c(-c3cncc(C#N)c3)cc(=O)c2NS(C)(=O)=O)c(C)n1` [Compound I-325], the EC50 was ≥ 25000 nM on ABCC6 WT and 1000 to 10000 nM on ABCA4 P1380L (setting [1]).

Consider `Cc1cc(C)c(Oc2nc(N3CC4(CCN(C(=O)C5CC5)C4)C3)ccc2NS(C)(=O)=O)c(C)c1` [Compound I-31], for which the values for the EC50 on ABCC6 WT and on ABCA4 P1380L (setting [1]) were 1000 to 10000 nM and > 25000 nM, respectively.

As to `Cc1cc(C)c(Oc2nc(-c3cncc(C#N)c3)ccc2NS(=O)(=O)C2CCC2)c(C)n1` [Compound I-243], the EC50 at ABCC6 WT and at ABCA4 P1380L (setting [1]) was < 1000 nM in each case.
